Key:
Format in all cases: protein assay
[1] = molecular target: T1, Angiotensin-converting enzyme (Homo sapiens, UniProt P12821+Q9BYF1); test: Inhibition of hydrolysis of N-[3-(2-furyl)acryloyll-Phe-Gly-Gly7 by angiotensin I converting enzyme
[2] = molecular target: T1, Angiotensin-converting enzyme; test: kinact for angiotensin I converting enzyme
[3] = molecular target: T1, Angiotensin-converting enzyme; test: First order rate constant for angiotensin I converting enzyme
[4] = tested on: N#CCC(=O)N[C@@H](Cc1ccccc1)C(=O)N[C@@H](Cc1ccccc1)C(=O)O; test: Km for angiotensin I converting enzyme

T1 sequence (P12821 whole entry, looked up): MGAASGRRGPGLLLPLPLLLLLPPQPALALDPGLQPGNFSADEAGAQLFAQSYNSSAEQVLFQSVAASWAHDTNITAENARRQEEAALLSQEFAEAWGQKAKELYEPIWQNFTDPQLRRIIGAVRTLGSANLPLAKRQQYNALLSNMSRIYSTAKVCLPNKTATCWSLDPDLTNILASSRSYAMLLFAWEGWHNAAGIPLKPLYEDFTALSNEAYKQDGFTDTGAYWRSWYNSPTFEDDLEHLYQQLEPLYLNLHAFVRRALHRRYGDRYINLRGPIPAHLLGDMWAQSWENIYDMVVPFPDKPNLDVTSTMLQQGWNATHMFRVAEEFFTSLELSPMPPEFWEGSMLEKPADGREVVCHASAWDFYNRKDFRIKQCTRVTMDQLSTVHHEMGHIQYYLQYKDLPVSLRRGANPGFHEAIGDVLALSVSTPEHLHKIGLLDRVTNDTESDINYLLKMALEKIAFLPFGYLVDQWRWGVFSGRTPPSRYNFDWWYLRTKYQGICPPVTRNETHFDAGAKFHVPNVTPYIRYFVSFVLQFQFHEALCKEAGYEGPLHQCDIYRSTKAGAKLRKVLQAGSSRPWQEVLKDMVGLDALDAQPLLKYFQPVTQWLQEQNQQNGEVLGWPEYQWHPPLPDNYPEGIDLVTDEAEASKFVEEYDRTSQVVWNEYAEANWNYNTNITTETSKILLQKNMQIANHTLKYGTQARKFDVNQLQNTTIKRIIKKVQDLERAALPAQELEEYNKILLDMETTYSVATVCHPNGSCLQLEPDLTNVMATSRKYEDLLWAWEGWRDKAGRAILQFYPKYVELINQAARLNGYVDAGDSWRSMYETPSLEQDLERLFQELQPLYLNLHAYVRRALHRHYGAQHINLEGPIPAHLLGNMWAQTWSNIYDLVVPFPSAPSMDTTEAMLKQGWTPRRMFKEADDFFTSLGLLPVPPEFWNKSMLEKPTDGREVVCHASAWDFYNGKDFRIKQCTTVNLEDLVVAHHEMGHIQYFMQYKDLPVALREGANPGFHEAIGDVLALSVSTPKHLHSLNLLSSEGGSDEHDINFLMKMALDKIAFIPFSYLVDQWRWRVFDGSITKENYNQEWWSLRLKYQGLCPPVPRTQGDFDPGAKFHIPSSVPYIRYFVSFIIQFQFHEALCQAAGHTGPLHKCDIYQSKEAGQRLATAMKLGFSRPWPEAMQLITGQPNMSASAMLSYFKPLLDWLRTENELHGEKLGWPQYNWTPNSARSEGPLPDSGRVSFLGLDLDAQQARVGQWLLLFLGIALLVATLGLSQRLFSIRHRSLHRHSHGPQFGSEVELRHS
T1 sequence (Q9BYF1 whole entry, looked up): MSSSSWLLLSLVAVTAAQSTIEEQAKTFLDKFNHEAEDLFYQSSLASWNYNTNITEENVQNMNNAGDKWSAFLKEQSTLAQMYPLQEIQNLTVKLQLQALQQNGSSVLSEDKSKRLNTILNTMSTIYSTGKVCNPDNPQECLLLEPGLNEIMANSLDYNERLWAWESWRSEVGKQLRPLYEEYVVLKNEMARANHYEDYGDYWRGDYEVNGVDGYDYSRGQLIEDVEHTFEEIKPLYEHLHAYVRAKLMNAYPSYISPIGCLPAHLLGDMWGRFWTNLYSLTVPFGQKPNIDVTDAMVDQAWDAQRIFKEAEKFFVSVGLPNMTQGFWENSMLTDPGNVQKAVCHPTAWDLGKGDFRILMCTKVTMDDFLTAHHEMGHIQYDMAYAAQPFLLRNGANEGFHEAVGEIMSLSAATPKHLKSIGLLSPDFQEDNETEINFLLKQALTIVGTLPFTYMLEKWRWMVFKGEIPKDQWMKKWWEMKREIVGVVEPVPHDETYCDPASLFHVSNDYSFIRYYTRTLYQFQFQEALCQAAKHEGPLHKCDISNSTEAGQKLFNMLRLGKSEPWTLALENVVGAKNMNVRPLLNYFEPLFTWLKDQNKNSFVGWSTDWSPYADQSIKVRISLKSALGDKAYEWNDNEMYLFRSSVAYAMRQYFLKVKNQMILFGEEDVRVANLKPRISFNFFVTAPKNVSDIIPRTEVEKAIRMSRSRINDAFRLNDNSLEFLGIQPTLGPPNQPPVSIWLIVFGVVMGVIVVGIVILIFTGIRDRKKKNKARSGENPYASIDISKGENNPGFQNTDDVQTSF
Sequence of Angiotensin-converting enzyme (Homo sapiens) (Q9BYF1 whole entry, looked up): as above
Sequence of Angiotensin-converting enzyme (Homo sapiens) (P12821 whole entry, looked up): as the sequence (P12821 whole entry, looked up) above

| Ki [1] [µM] | K inact [2] [min⁻¹] | k obs [3] [s⁻¹] | Compound | Km [4] [mM] |
| --- | --- | --- | --- | --- |
| 65 | 0.08 | 0.000835 | N#CCC(=O)N[C@@H](Cc1ccccc1)C(=O)N[C@@H](Cc1ccccc1)C(=O)O | – |
| – | – | 0.000251 | C[C@H](NC(=O)CC#N)C(=O)N[C@@H](Cc1ccccc1)C(=O)O | – |
| – | – | – | Angiotensin-converting enzyme (Homo sapiens) (from UniProt P12821+Q9BYF1) | 10.5 |
| – | – | 0.000501 | CC(C)C[C@H](NC(=O)[C@H](C)NC(=O)CC#N)C(=O)O | – |

Source: ChEMBL document CHEMBL1125348, “The first mechanism-based inactivators for angiotensin-converting enzyme” (J Med Chem, 1992)
